From the supplement of paper PMC11451515

Tests used:
Settings in all cases: 48 h
[1] = tested on: NOMO1; experiment: AUC of viability dose-response curve (% viability x log10 dose units); higher = less sensitive
Summary of the method: (§1)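 Seeding of medium-adapted leukemia cells was at 500 or 1000 cells/well in 1536-well plates, followed by 48 h at 37°C with library compounds in DMSO at 11 threefold doses from 47 μM to 0.79 nM. CellTiter-Glo One luminescence was normalised per plate to DMSO and cell-free wells and fitted as a four-parameter log-logistic function of log10 dose. Area under the curve was integrated by trapezoidal rule, with curves exceeding full viability scaled and curves failing quality control removed.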

[2] = tested on: P12-Ichikawa; experiment: as above
Summary of the method: as §1

[3] = tested on: SEM cells; experiment: as above
Summary of the method: as §1

[4] = tested on: NOMO1; experiment: cell viability relative to DMSO control; higher = less cytotoxic
Summary of the method: (§2)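 Viability is a per-plate percentage relative to DMSO wells, with cell-free wells as background. CellTiter-Glo One luminescence was read after 48 h at 37°C on 1536-well plates (5 μl) of NOMO1 or SEM (500 cells/well) or P12-Ichikawa (1000 cells/well) leukemia cells. The cells had been adapted for at least four passages in each medium and pin-dosed with library compounds in DMSO from 47 μM to 0.79 nM in 11 threefold steps.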

[5] = tested on: P12-Ichikawa; experiment: as above
Summary of the method: as §2

[6] = tested on: SEM cells; experiment: as above
Summary of the method: as §2

Cc1cc(C[S+](=O)([O-])c2ccccc2)cc(OCc2ccc(CN3CCC[C@@H]3CO)cc2)c1
AUC of viability dose-response curve
Settings | [1] | [2] | [3]
HPLM + 10% dialyzed FBS | 298 | 305 | 291
RPMI 5 mM glucose + 10% FBS | 321 | 315 | 268
RPMI 5 mM glucose + 10% dialyzed FBS | 323 | 321 | 285

COc1cc(C(=O)N2CCC(N3CCN(C)CC3)CC2)ccc1Nc1ncc2c(n1)N(C)c1ccccc1C(=O)N2C
AUC of viability dose-response curve
Settings | [1] | [2] | [3]
HPLM + 10% dialyzed FBS | 419 | 428 | 376
RPMI 5 mM glucose + 10% FBS | 435 | 435 | 374
RPMI 5 mM glucose + 10% dialyzed FBS | 412 | 433 | 363

CC(C)n1nc(-c2ccc3oc(N)nc3c2)c2c(N)ncnc21
cell viability [%]
Settings | [4] | [5] | [6]
HPLM + 10% dialyzed FBS, 0.000781 µM | 96.9 | 95.5 | 87.7
HPLM + 10% dialyzed FBS, 0.00234 µM | 75.9 | 91 | 73.7
HPLM + 10% dialyzed FBS, 0.00702 µM | 65.1 | 86.3 | 63.3
HPLM + 10% dialyzed FBS, 0.0211 µM | 62.6 | 79.7 | 56.4
HPLM + 10% dialyzed FBS, 0.0632 µM | 55.3 | 78 | 44.5
HPLM + 10% dialyzed FBS, 0.19 µM | 53.6 | 75 | 38.5
HPLM + 10% dialyzed FBS, 0.569 µM | 52.2 | 68.7 | 31.8
HPLM + 10% dialyzed FBS, 1.71 µM | 55 | 67.2 | 29.9
HPLM + 10% dialyzed FBS, 5.12 µM | 50.6 | 66.7 | 23.7
HPLM + 10% dialyzed FBS, 15.4 µM | 33.1 | 59.9 | 18.6
HPLM + 10% dialyzed FBS, 46.1 µM | 26.3 | 44.5 | 3.79
RPMI 5 mM glucose + 10% FBS, 0.000781 µM | 93.1 | 74.4 | 106
RPMI 5 mM glucose + 10% FBS, 0.00234 µM | 96.5 | 71.5 | 101
RPMI 5 mM glucose + 10% FBS, 0.00702 µM | 83.3 | 64.1 | 70.3
RPMI 5 mM glucose + 10% FBS, 0.0211 µM | 77.6 | 61.5 | 62.4
RPMI 5 mM glucose + 10% FBS, 0.0632 µM | 66.6 | 52 | 59.3
RPMI 5 mM glucose + 10% FBS, 0.19 µM | 59.2 | 54.4 | 42.4
RPMI 5 mM glucose + 10% FBS, 0.569 µM | 56.8 | 51 | 38.3
RPMI 5 mM glucose + 10% FBS, 1.71 µM | 50.3 | 46.8 | 29.1
RPMI 5 mM glucose + 10% FBS, 5.12 µM | 49.9 | 41.4 | 25.1
RPMI 5 mM glucose + 10% FBS, 15.4 µM | 38.7 | 37.2 | 4.15
RPMI 5 mM glucose + 10% FBS, 46.1 µM | 34.4 | 31.3 | 3.72
RPMI 5 mM glucose + 10% dialyzed FBS, 0.000781 µM | 83.4 | 82.5 | 78.2
RPMI 5 mM glucose + 10% dialyzed FBS, 0.00234 µM | 74.5 | 78.9 | 78.8
RPMI 5 mM glucose + 10% dialyzed FBS, 0.00702 µM | 67.2 | 67.1 | 70.9
RPMI 5 mM glucose + 10% dialyzed FBS, 0.0211 µM | 58.5 | 59.1 | 54.8
RPMI 5 mM glucose + 10% dialyzed FBS, 0.0632 µM | 59.6 | 61.7 | 52.6
RPMI 5 mM glucose + 10% dialyzed FBS, 0.19 µM | 52.6 | 53.8 | 44
RPMI 5 mM glucose + 10% dialyzed FBS, 0.569 µM | 51.7 | 45 | 39.7
RPMI 5 mM glucose + 10% dialyzed FBS, 1.71 µM | 48.6 | 47.3 | 36.1
RPMI 5 mM glucose + 10% dialyzed FBS, 5.12 µM | 43.2 | 41.5 | 28.6
RPMI 5 mM glucose + 10% dialyzed FBS, 15.4 µM | 35.7 | 35.6 | 15.8
RPMI 5 mM glucose + 10% dialyzed FBS, 46.1 µM | 31.3 | 32 | 4.72
